The values below are quoted from earlier work in patent publication US7914812B2, “Wound care dressing and method using same” (priority 2004, dated 2011).

For the first data set the following is noted: 25° C.
With `OC[C@@H](O)[C@@H](O)[C@H](O)[C@H](O)CO` [Mannitol], the “Solubility ww % (25° C.)” value is reported as 18 ww %.

As for `OC[C@@H](O)[C@@H](O[C@H]1O[C@H](CO)[C@@H](O)[C@H](O)[C@H]1O)[C@H](O)[C@@H](O)CO` [Maltitol], the “Solubility ww % (25° C.)” value is 60 ww %.

For the compound `OC[C@@H](O)[C@H](O)[C@@H](O)CO` [Xylitol], the “Solubility ww % (25° C.)” value was 66 ww %.

`OC[C@@H](O)[C@@H](O[C@@H]1O[C@H](CO)[C@H](O)[C@H](O)[C@H]1O)[C@H](O)[C@@H](O)CO` [Lactitol]: the “Solubility ww % (25° C.)” value was 58 ww %.

Take Isomalt: the “Solubility ww % (25° C.)” value is on record as 28 ww %.

Consider `OC[C@@H](O)[C@@H](O)CO` [Erythritol], for which the “Solubility ww % (25° C.)” value is recorded as 36 ww %.

As to `OC[C@@H](O)[C@@H](O)[C@H](O)[C@@H](O)CO` [Sorbitol], the “Solubility ww % (25° C.)” value is 72 ww %.

Staying with this data set, now noted: at about 37° C., i.e. body temperature; water.
For the compound `OC[C@@H](O)[C@@H](O)[C@H](O)[C@H](O)CO` [Mannitol], the solubility entry was “about 23 grams per 100 grams of water”.

For the compound `OC[C@H]1O[C@@](CO)(O[C@H]2O[C@H](CO)[C@@H](O)[C@H](O)[C@H]2O)[C@@H](O)[C@@H]1O` [sucrose], the solubility entry was “about 78 grams per 100 grams of water”.
